Each structure is given as a SMILES string.

Series [1] addresses T1, reuptake of dopamine (DA) in synaptosomes (Rattus norvegicus, UniProt P23977).
T1 construct: in synaptosomes as described in WO 97/16451; from tissue
The experiment in a line: Inhibition of 3H-DA reuptake in synaptosomes. The series is classed as biochemical. As to conditions: as described in WO 97/16451, read-out: DA-uptake IC50. The method, then:
(§1) A number of compounds were tested for their ability to inhibit the reuptake of the monoamine neurotransmitters dopamine (DA) noradrenaline (NA) and serotonine (5-HT) in synaptosomes as described in WO 97/16451.
(§2) The test values are given as IC50 (the concentration (μM) of the test substance which inhibits the specific binding of ^3H-DA, ^3H-NA, or ^3H-5-HT by 50%).

Series [2] has as its target T2, reuptake of serotonine (5-HT) in synaptosomes (Rattus norvegicus, UniProt P31652).
T2 construct: in synaptosomes as described in WO 97/16451; from tissue
The series is described as follows: Inhibition of 3H-5-HT reuptake in synaptosomes. As to conditions: as described in WO 97/16451, read-out: 5-HT-uptake IC50. The series is classed as biochemical. How it is done: as §1, §2

T2 sequence (P31652 whole entry): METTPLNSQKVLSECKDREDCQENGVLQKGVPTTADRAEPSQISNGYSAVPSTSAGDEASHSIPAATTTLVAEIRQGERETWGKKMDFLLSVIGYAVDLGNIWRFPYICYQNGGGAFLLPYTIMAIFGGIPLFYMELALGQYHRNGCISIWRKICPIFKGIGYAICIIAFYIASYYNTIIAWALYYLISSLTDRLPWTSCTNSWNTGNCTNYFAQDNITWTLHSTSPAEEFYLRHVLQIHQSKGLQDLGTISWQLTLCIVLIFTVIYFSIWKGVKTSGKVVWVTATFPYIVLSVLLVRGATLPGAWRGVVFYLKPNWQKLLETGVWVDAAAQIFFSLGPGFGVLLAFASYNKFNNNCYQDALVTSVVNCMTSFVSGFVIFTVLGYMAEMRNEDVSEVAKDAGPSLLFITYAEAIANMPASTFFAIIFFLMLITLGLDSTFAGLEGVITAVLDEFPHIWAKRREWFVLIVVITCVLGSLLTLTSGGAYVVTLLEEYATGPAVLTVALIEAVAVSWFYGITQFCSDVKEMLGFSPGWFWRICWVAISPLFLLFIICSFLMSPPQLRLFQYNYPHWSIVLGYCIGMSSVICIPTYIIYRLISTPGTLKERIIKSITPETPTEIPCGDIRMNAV
T1 sequence (P23977 whole entry): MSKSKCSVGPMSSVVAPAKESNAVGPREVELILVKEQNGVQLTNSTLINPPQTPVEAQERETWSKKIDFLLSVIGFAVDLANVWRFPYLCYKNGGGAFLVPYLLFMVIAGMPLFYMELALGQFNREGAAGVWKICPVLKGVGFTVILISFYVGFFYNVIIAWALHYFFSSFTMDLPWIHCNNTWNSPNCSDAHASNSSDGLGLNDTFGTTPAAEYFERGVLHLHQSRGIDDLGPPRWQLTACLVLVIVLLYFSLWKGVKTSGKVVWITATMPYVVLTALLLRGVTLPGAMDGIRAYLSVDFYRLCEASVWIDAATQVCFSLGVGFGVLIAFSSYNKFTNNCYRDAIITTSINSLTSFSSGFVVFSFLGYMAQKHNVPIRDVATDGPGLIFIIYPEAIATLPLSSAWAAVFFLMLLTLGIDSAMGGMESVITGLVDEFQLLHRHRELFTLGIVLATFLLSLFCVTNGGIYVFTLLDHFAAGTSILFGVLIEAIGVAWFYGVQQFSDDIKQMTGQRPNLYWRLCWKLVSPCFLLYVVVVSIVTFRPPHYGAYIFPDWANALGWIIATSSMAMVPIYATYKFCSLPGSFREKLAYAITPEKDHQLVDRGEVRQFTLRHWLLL

Consider `O=c1ccc2ccc(OC3CCC4(CCNCC4)CC3)cc2o1` [3rd compound of method A, 7-(3-Aza-spiro[5.5]undec-9-yloxy)-chromen-2-one], for which the melting point was in the range of 126 to 128 °C. Further, the concentration for half-maximal inhibition (IC50) in series [1] was determined as 1200 nM. For the same compound, the 50% inhibitory concentration (IC50) in series [2] amounted to 2 nM.
For `Clc1ccc(NC2CCC3(CCNCC3)CC2)cc1Cl` [2nd last compound of method A, (3-Aza-spiro[5.5]undec-9-yl)-(3,4-dichloro-phenyl)-amine], in that order: 128 to 132 °C, 490 nM and 2.3 nM.

For the origin of these results see patent publication US8049012B2, “3-aza-spiro[5.5]undecane derivatives and their use as monoamine neurotransmitter re-uptake inhibitors” (Neurosearch A/S, priority 2005, dated 2011).
